The values that follow are results of earlier work, collected in patent US20180344690A1, “Methods and Formulation for Enhancing Response to Radiotherapy” (The Board of Trustees of the Leland Stanford Junior …, priority 2017, published 2018).

The subject of data set [1] is multiple myeloma (MM). The settings on record: cited from earlier work.
The test system of data set [2] is APL. The settings on record: untreated control 18 days; cytarabine vs cytarabine+Plerixafor p<0.0006; cited from earlier work.

For `CC(C)C[C@H](NC(=O)[C@H](Cc1ccccc1)NC(=O)c1cnccn1)B(O)O` [bortezomib], the tumor progression result in data set [1] (bortezomib vs control P=0.041, combination vs control P=0.001, vs bortezomib alone P=0.021) is on record as “reduction in tumor progression compared with control”. The “tumor involvement in BM, liver and spleen” value in data set [1] (mouse, in vivo) is listed as “significant decrease of tumor cells”.

Consider `Nc1ccn([C@@H]2O[C@H](CO)[C@@H](O)[C@@H]2O)c(=O)n1` [cytarabine], for which the median overall survival in data set [2] is on record as 23 days.
